Molecules are shown by their SMILES.

In this test the test system is ASTM test fungi. The test is described as follows: Agar plate testing. The test is classed as cell-based. The note with it: agar plates, 14 days at 30 C. The source says: ASTM test fungi in Petri dishes were subjected to Treatment solutions with and without unsaturated fatty esters (linoleic, oleic, linolenic and arachidonic esters as a 1:1:1:1 ratio). The agar plate test method allowed for rapid determinations of antifungal efficacy against wood-degrading strains of concern. The certified cultures were obtained from the American Type Culture Collection (ATCC) and propagated as per the product information sheets: • Irpex lacteus: ATCC number 11245, yeast medium Difco 0712 (ATCC medium no. 200) • Neolentius lepideus: ATCC number 12653, YM agar Difco 0712 (ATCC medium no. 200) • Postia poria: ATCC number 11538, YM agar Difco 0712 (ATCC medium no. 200) • Pleurotus ostreatus: ATCC number 32237, YM agar Difco 0712 (ATCC medium no. 200) • Trametes versicolor: ATCC number 42462, Hagem's-Modess medium (ATCC medium no. 479) • Gleoephyllum trabeum: ATCC number 11539, Potato Dextrose Agar with 0.5% yeast extract (ATCC medium no. 337)
Each plate was then inoculated in a flame induced sterile environment with a 5 mm diameter agar plug fungal colony of those fungi listed. […] The plates were incubated for 14 days at 30 C and the presence or absence of fungal growth was noted and measured.

Regarding `Oc1c(Cl)c(Cl)c(Cl)c(Cl)c1Cl` [PCP, pentachlorophenol], the growth of fungi result is recorded as “completely inhibited”.
